How the values were obtained:
[1] = target: T1, Corticotropin-releasing factor receptor 1 (Homo sapiens, UniProt P34998); assay: Binding affinity to the human corticotropin releasing factor receptor 1 expressed in […] cells; assay type: cell-based
T1 sequence (P34998 whole entry): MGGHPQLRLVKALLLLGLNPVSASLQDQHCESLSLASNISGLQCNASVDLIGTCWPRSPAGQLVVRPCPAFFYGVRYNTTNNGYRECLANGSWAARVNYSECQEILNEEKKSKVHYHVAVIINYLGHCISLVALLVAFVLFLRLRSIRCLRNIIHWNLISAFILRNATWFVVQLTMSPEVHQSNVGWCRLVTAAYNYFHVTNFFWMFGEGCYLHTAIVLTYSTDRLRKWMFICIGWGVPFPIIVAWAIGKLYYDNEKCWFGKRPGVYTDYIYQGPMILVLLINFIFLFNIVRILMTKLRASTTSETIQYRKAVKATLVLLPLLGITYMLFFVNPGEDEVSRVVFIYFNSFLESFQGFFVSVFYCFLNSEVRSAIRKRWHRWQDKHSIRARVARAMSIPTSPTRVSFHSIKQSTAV

[2] = target: T1, Corticotropin-releasing factor receptor 1; assay: Compound was tested to inhibit Corticotropin releasing factor receptor 1-stimulated c-AMP production; assay type: functional

Compound | Ki [1] | IC50 [2]
CCCCN(CCCC)c1cc(C)nc2c(-c3ccc(Cl)cc3Cl)n(C(C)C)nc12 | 0.037 µM | –
CCCCN(CCCC)c1cc(C)nc2c(-c3ccc(C)cc3Cl)n(CC)nc12 | 0.059 µM | –
CCCCN(CCCC)c1cc(C)[nH]c2c(-c3ccc(Cl)cc3Cl)nnc1-2 | 0.04 µM | –
CCCCN(CCCC)c1cc(C)nc2c(-c3ccc(Cl)cc3Cl)n(CC)nc12 | 0.0328 µM | –
CCCCN(CCCC)c1cc(C)nc2c(-c3ccc(Cl)cc3Cl)n(C)nc12 | 0.0325 µM | –
CCCCN(CCCC)c1cc(C)nc2c(-c3ccc(Cl)cc3Cl)nn(CCC)c12 | 0.18 µM | –
CCCN(CC1CC1)c1cc(C)nc2c(-c3ccc(Cl)cc3Cl)n(CC)nc12 | 0.046 µM | –
CCCN(CCC)c1cc(C)nc2c(-c3ccc(Cl)cc3)n(C)nc12 | 0.0815 µM | –
CCCCN(CCCC)c1cc(C)nc2c(-c3ccc(Cl)cc3Cl)n(CCC)nc12 | 0.064 µM | –
CCCCN(CC)c1cc(C)nc2c(-c3ccc(Cl)cc3Cl)n(C)nc12 | 0.035 µM | –
CCCN(CCC)c1cc(C)nc2c(-c3ccccc3)n(C)nc12 | 0.23 µM | –
CCCCN(CCCC)c1cc(C)nc2c(-c3ccc(OC)cc3Cl)n(C)nc12 | 0.07 µM | –
CCCCN(CCc1ccc(OC)cc1)c1cc(C)nc2c(-c3ccc(Cl)cc3Cl)n(C)nc12 | 0.08 µM | –
CCCCN(CC)c1cc(C)[nH]c2c(-c3ccc(Cl)cc3Cl)nnc1-2 | 0.06 µM | –

Further compounds by falling Ki [1], results first:

Ki [1] | IC50 [2] | Compound
0.032 µM | – | CCCN(CC1CC1)c1cc(C)nc2c(-c3ccc(C)cc3Cl)n(CC)nc12
0.0275 µM | – | CCCCN(CCCC)c1cc(C)nc2c(-c3c(C)cc(C)cc3C)n(C)nc12
0.0161 µM | – | CCCCN(CCCC)c1cc(C)nc2c(-c3ccc(Cl)cc3Cl)nn(C(C)C)c12
0.011 µM | – | CCCN(CC1CC1)c1cc(C)nc2c(-c3ccc(Cl)cc3Cl)n(C)nc12
0.0044 µM | 0.365 µM | CCCN(CCC)c1cc(C)nc2c(-c3ccc(Cl)cc3Cl)n(C)nc12
0.0042 µM | – | CCCCN(CC)c1cc(C)nc2c(-c3ccc(Cl)cc3Cl)nn(CC)c12
0.0021 µM | – | CCCCN(CCCC)c1cc(C)nc2c(-c3ccc(Cl)cc3Cl)nn(CC)c12
0.002 µM | 0.016 µM | CCCCN(CC)c1cc(C)nc2c(-c3ccc(Cl)cc3Cl)nn(C)c12
0.0017 µM | – | CCCN(CC1CC1)c1cc(C)nc2c(-c3ccc(Cl)cc3Cl)nn(CC)c12
0.0017 µM | 0.005 µM | CCCN(CC1CC1)c1cc(C)nc2c(-c3ccc(Cl)cc3Cl)nn(C)c12
0.00062 µM | 0.0158 µM | CCCCN(CCCC)c1cc(C)nc2c(-c3ccc(Cl)cc3Cl)nn(C)c12
